In patent US20100076015A1, “Aminopyridine Derivatives” (VANTIA LIMITED, priority 2008, published 2010):

Target: T1, Human KLK1 (Homo sapiens, UniProt P06870)
T1 construct: purchased Callbiochem (Calbiochem)
Assay: Determination of the IC50 for KLK1 (fluorogenic substrate H-DVal-Leu-Arg-AFC)
Type: biochemical
Settings: 37° C.
How it was run: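 Test compound at various concentrations was incubated with human KLK1 and the fluorogenic substrate H-DVal-Leu-Arg-AFC at 37° C. Absorbance change at 410 nm gave the initial reaction rate, from which IC50 was obtained.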

T1 sequence (P06870 25-262): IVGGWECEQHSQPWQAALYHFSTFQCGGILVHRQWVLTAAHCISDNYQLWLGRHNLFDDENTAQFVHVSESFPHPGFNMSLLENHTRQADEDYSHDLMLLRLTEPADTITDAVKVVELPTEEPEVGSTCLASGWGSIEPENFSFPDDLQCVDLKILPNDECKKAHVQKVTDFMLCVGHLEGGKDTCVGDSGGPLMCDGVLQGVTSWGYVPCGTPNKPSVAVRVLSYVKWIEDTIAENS

| Structure (SMILES) | IC50 [nM] |
| --- | --- |
| Cc1ccc(-c2ccc(C(=O)N[C@@H](Cc3cccc4ccccc34)C(=O)NCc3ccc(N)nc3)[nH]2)cc1 [Example 292, 5-p-Tolyl-1H-pyrrole-2-carboxylic acid {(S)-1-[(6-amino-pyridin-3-ylmethyl)-carbamoyl]-2-naphthalen-1-yl-ethyl}-amide] | 31.5 |
| Cc1ccc(-c2ccc(C(=O)N[C@@H](Cc3csc4ccccc34)C(=O)NCc3ccc(N)nc3)[nH]2)cc1 [Example 293, 5-p-Tolyl-1H-pyrrole-2-carboxylic acid {(S)-1-[(6-amino-pyridin-3-ylmethyl)-carbamoyl]-2-benzo[b]thiophen-3-yl-ethyl}-amide] | 36.3 |
| Cc1ccc(-c2ccc(C(=O)N[C@@H](Cc3ccc(F)c(F)c3)C(=O)NCc3ccc(N)nc3)[nH]2)cc1 [Example 294, 5-p-Tolyl-1H-pyrrole-2-carboxylic acid [(S)-1-[(6-amino-pyridin-3-ylmethyl)-carbamoyl]-2-(3,4-difluoro-phenyl)-ethyl]-amide] | 35.6 |
| Cc1ccc(-c2ccc(C(=O)N[C@@H](Cc3ccccc3Cl)C(=O)NCc3ccc(N)nc3)[nH]2)cc1 [Example 295, 5-p-Tolyl-1H-pyrrole-2-carboxylic acid [(S)-1-[(6-amino-pyridin-3-ylmethyl)-carbamoyl]-2-(2-chloro-phenyl)-ethyl]-amide] | 192 |
| Cc1ccc(-c2ccc(C(=O)N[C@@H](Cc3ccc(Cl)c(Cl)c3)C(=O)NCc3ccc(N)nc3)[nH]2)cc1 [Example 296, 5-p-Tolyl-1H-pyrrole-2-carboxylic acid [(S)-1-[(6-amino-pyridin-3-ylmethyl)-carbamoyl]-2-(3,4-dichloro-phenyl)-ethyl]-amide] | 40.9 |
| Cc1ccc(-c2ccc(C(=O)N[C@@H](Cc3cccc(Cl)c3)C(=O)NCc3ccc(N)nc3)[nH]2)cc1 [Example 297, 5-p-Tolyl-1H-pyrrole-2-carboxylic acid [(S)-1-[(6-amino-pyridin-3-ylmethyl)-carbamoyl]-2-(3-chloro-phenyl)-ethyl]-amide] | 40.1 |
| Nc1ccc(CNC(=O)[C@H](Cc2cccc3ccccc23)NC(=O)c2cc3ccccc3[nH]2)cn1 [Example 298, 1H-Indole-2-carboxylic acid {(S)-1-[(6-amino-pyridin-3-ylmethyl)-carbamoyl]-2-naphthalen-1-yl-ethyl}-amide] | 9.4 |
| Nc1ccc(CNC(=O)[C@H](Cc2cccc3ccccc23)NC(=O)c2nc3ccccc3[nH]2)cn1 [Example 299, 1H-Benzoimidazole-2-carboxylic acid {(S)-1-[(6-amino-pyridin-3-ylmethyl)-carbamoyl]-2-naphthalen-1-yl-ethyl}-amide] | 8.1 |
| COc1ccc2[nH]c(C(=O)N[C@@H](Cc3cccc4ccccc34)C(=O)NCc3ccc(N)nc3)cc2c1 [Example 300, 5-Methoxy-1H-indole-2-carboxylic acid {(S)-1-[(6-amino-pyridin-3-ylmethyl)-carbamoyl]-2-naphthalen-1-yl-ethyl}-amide] | 7.4 |
| Nc1ccc(CNC(=O)[C@H](Cc2cccc3ccccc23)NC(=O)c2cc3cc(F)ccc3[nH]2)cn1 [Example 301, 5-Fluoro-1H-indole-2-carboxylic acid {(S)-1-[(6-amino-pyridin-3-ylmethyl)-carbamoyl]-2-naphthalen-1-yl-ethyl}-amide] | 11 |
| Nc1ccc(CNC(=O)[C@H](Cc2cccc3ccccc23)NC(=O)c2cc3cc(O)ccc3[nH]2)cn1 [Example 302, 5-Hydroxy-1H-indole-2-carboxylic acid {(S)-1-[(6-amino-pyridin-3-ylmethyl)-carbamoyl]-2-naphthalen-1-yl-ethyl}-amide] | 7.2 |
| Cc1nc(N)ccc1CNC(=O)[C@H](Cc1cccc2ccccc12)NC(=O)c1cc2ccccc2[nH]1 [Example 303, 1H-Indole-2-carboxylic acid {(S)-1-[(6-amino-2-methyl-pyridin-3-ylmethyl)-carbamoyl]-2-naphthalen-1-yl-ethyl}-amide] | 240 |
| COc1ccc2[nH]c(C(=O)N[C@@H](Cc3cccc4ccccc34)C(=O)NCc3ccc(N)nc3C)cc2c1 [Example 304, 5-Methoxy-1H-indole-2-carboxylic acid {(S)-1-[(6-amino-2-methyl-pyridin-3-ylmethyl)-carbamoyl]-2-naphthalen-1-yl-ethyl}-amide] | 148 |
| Cc1nc(N)ccc1CNC(=O)[C@H](Cc1cccc2ccccc12)NC(=O)c1cc2cc(F)ccc2[nH]1 [Example 305, 5-Fluoro-1H-indole-2-carboxylic acid {(S)-1-[(6-amino-2-methyl-pyridin-3-ylmethyl)-carbamoyl]-2-naphthalen-1-yl-ethyl}-amide] | 119 |
| Cn1c(C(=O)N[C@@H](Cc2cccc3ccccc23)C(=O)NCc2ccc(N)nc2)cc2ccccc21 [Example 306, 1-Methyl-1H-indole-2-carboxylic acid {(S)-1-[(6-amino-pyridin-3-ylmethyl)-carbamoyl]-2-naphthalen-1-yl-ethyl}-amide] | 163 |
| Nc1ccc(CNC(=O)[C@H](Cc2cccc(C(F)(F)F)c2)NC(=O)c2cc3ccccc3[nH]2)cn1 [Example 307, 1H-Indole-2-carboxylic acid [(S)-1-[(6-amino-pyridin-3-ylmethyl)-carbamoyl]-2-(3-trifluoromethyl-phenyl)-ethyl]-amide] | 22 |

Second part, the compound after the results:

| IC50 [nM] | Structure (SMILES) |
| --- | --- |
| 15.6 | COc1ccc2[nH]c(C(=O)N[C@@H](Cc3cccc(C(F)(F)F)c3)C(=O)NCc3ccc(N)nc3)cc2c1 [Example 308, 5-Methoxy-1H-indole-2-carboxylic acid [(S)-1-[(6-amino-pyridin-3-ylmethyl)-carbamoyl]-2-(3-trifluoromethyl-phenyl)-ethyl]-amide] |
| 42.3 | Cc1nc(N)ccc1CNC(=O)[C@H](Cc1cccc(C(F)(F)F)c1)NC(=O)c1cc2ccccc2[nH]1 [Example 309, 1H-Indole-2-carboxylic acid [(S)-1-[(6-amino-2-methyl-pyridin-3-ylmethyl)-carbamoyl]-2-(3-trifluoromethyl-phenyl)-ethyl]-amide] |
| 48.9 | COc1ccc2[nH]c(C(=O)N[C@@H](Cc3cccc(C(F)(F)F)c3)C(=O)NCc3ccc(N)nc3C)cc2c1 [Example 310, 5-Methoxy-1H-indole-2-carboxylic acid [(S)-1-[(6-amino-2-methyl-pyridin-3-ylmethyl)-carbamoyl]-2-(3-trifluoromethyl-phenyl)-ethyl]-amide] |
| 46.5 | Nc1ccc(CNC(=O)[C@H](Cc2cccc(F)c2)NC(=O)c2cc3ccccc3[nH]2)cn1 [Example 311, 1H-Indole-2-carboxylic acid [(S)-1-[(6-amino-pyridin-3-ylmethyl)-carbamoyl]-2-(3-fluoro-phenyl)-ethyl]-amide] |
| 38.4 | COc1ccc2[nH]c(C(=O)N[C@@H](Cc3cccc(F)c3)C(=O)NCc3ccc(N)nc3)cc2c1 [Example 312, 5-Methoxy-1H-indole-2-carboxylic acid [(S)-1-[(6-amino-pyridin-3-ylmethyl)-carbamoyl]-2-(3-fluoro-phenyl)-ethyl]-amide] |
| 8.7 | Nc1ccc(CNC(=O)[C@H](Cc2cccc(Cl)c2)NC(=O)c2cc3ccccc3[nH]2)cn1 [Example 313, 1H-Indole-2-carboxylic acid [(S)-1-[(6-amino-pyridin-3-ylmethyl)-carbamoyl]-2-(3-chloro-phenyl)-ethyl]-amide] |
| 15.6 | COc1ccc2[nH]c(C(=O)N[C@@H](Cc3cccc(Cl)c3)C(=O)NCc3ccc(N)nc3)cc2c1 [Example 314, 5-Methoxy-1H-indole-2-carboxylic acid [(S)-1-[(6-amino-pyridin-3-ylmethyl)-carbamoyl]-2-(3-chloro-phenyl)-ethyl]-amide] |
| 68.6 | Cc1nc(N)ccc1CNC(=O)[C@@H](Cc1cccc(Cl)c1)NC(=O)c1cc2ccccc2[nH]1 [Example 315, 1H-Indole-2-carboxylic acid [(R)-1-[(6-amino-2-methyl-pyridin-3-ylmethyl)-carbamoyl]-2-(3-chloro-phenyl)-ethyl]-amide] |
| 76.7 | COc1ccc2[nH]c(C(=O)N[C@@H](Cc3cccc(Cl)c3)C(=O)NCc3ccc(N)nc3C)cc2c1 [Example 316, 5-Methoxy-1H-indole-2-carboxylic acid [(S)-1-[(6-amino-2-methyl-pyridin-3-ylmethyl)-carbamoyl]-2-(3-chloro-phenyl)-ethyl]-amide] |
| 14.7 | Cc1cccc(C[C@H](NC(=O)c2cc3ccccc3[nH]2)C(=O)NCc2ccc(N)nc2)c1 [Example 317, 1H-Indole-2-carboxylic acid {(S)-1-[(6-amino-pyridin-3-ylmethyl)-carbamoyl]-2-m-tolyl-ethyl}-amide] |
| 12.1 | COc1ccc2[nH]c(C(=O)N[C@@H](Cc3cccc(C)c3)C(=O)NCc3ccc(N)nc3)cc2c1 [Example 318, 5-Methoxy-1H-indole-2-carboxylic acid {(S)-1-[(6-amino-pyridin-3-ylmethyl)-carbamoyl]-2-m-tolyl-ethyl}-amide] |
| 110 | Cc1cccc(C[C@H](NC(=O)c2cc3ccccc3[nH]2)C(=O)NCc2ccc(N)nc2C)c1 [Example 319, 1H-Indole-2-carboxylic acid {(S)-1-[(6-amino-2-methyl-pyridin-3-ylmethyl)-carbamoyl]-2-m-tolyl-ethyl}-amide] |
| 98.5 | Cc1nc(N)ccc1CNC(=O)[C@H](Cc1ccc(Cl)c(Cl)c1)NC(=O)c1cc2ccccc2[nH]1 [Example 320, 1H-Indole-2-carboxylic acid [(S)-1-[(6-amino-2-methyl-pyridin-3-ylmethyl)-carbamoyl]-2-(3,4-dichloro-phenyl)-ethyl]-amide] |
| 85.4 | COc1ccc2[nH]c(C(=O)N[C@@H](Cc3ccc(Cl)c(Cl)c3)C(=O)NCc3ccc(N)nc3C)cc2c1 [Example 321, 5-Methoxy-1H-indole-2-carboxylic acid [(S)-1-[(6-amino-2-methyl-pyridin-3-ylmethyl)-carbamoyl]-2-(3,4-dichloro-phenyl)-ethyl]-amide] |
| 12.4 | Cc1nc(N)ccc1CNC(=O)[C@H](Cc1ccccc1C(F)(F)F)NC(=O)c1cc2ccccc2[nH]1 [Example 322, 1H-Indole-2-carboxylic acid [(S)-1-[(6-amino-2-methyl-pyridin-3-ylmethyl)-carbamoyl]-2-(2-trifluoromethyl-phenyl)-ethyl]-amide] |
